From ChEMBL document CHEMBL1123633, “Cardiotonic agents. 8. Selective inhibitors of adenosine 3',5'-cyclic phosphate phosphodiesterase III. Elaboration of a five-point model for positive inotropic activity” (J Med Chem, 1987)

Columns and labels:
Phosphodiesterase 3 = Phosphodiesterase 3 (Homo sapiens, UniProt Q14432+Q13370); assay: Inhibition of cAMP PDE III enzyme; assay type: protein assay, Cavia porcellus
Canis familiaris = assay: 50% increase in myocardial contractility (dP/dt max) in anesthetized dogs on intravenous dose; assay type: functional; details: Canis lupus familiaris, Myocardium
Phosphodiesterase 1 [1] = target: T1, Phosphodiesterase 1 (Homo sapiens, UniProt P54750+Q01064+Q14123); assay: Inhibition cGMP PDE I enzyme; assay type: protein assay, Cavia porcellus
[2] = target: T2, cGMP-dependent 3',5'-cyclic phosphodiesterase (Homo sapiens, UniProt O00408); assay: Inhibition of cAMP PDE II enzyme; parameters: species or system Cavia porcellus
T2 sequence (O00408 whole entry): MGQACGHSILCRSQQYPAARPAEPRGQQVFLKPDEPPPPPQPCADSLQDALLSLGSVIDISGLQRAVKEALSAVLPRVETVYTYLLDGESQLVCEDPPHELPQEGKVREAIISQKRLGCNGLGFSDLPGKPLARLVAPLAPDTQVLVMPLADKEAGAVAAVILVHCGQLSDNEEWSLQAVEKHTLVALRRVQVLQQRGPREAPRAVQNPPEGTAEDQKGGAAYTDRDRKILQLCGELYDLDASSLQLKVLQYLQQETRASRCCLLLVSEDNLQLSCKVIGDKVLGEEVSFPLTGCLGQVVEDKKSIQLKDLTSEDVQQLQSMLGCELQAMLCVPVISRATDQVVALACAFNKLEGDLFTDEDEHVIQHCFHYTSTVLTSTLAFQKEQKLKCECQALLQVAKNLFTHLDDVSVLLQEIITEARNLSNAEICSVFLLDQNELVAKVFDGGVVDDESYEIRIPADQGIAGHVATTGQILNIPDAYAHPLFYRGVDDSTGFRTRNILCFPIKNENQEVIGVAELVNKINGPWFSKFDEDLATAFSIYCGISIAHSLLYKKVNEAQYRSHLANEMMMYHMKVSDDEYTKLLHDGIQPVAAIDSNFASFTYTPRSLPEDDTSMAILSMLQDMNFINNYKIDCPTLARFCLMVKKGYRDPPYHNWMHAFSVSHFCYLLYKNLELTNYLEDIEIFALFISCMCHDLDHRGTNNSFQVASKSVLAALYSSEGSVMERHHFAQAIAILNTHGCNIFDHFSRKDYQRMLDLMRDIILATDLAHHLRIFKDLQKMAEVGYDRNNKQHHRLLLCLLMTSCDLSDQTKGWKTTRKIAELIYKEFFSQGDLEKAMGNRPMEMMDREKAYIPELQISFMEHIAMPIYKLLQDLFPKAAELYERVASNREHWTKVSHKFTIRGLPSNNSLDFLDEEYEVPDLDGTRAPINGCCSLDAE

Phosphodiesterase 1 [3] = target: T1, Phosphodiesterase 1; assay: Inhibition of cAMP PDE I enzyme; assay type: protein assay, Cavia porcellus
[4] = target: T2, cGMP-dependent 3',5'-cyclic phosphodiesterase; assay: Inhibition of cGMP PDE II enzyme; parameters: species or system Cavia porcellus

Row | SMILES | ED50 (Canis familiaris) | IC50 (Phosphodiesterase 1 [1]) | further results
1 | CC1CC(=O)NN=C1c1ccc2c(c1)CCC(=O)N2C (stereo unspecified) | – | – | IC50 (Phosphodiesterase 3): 0.12 µM
2 | O=C1CC2Cc3cc(-n4ccnc4)ccc3C2=NN1 (stereo unspecified) | 0.023 mg/kg | – | –
3 | O=C1CCC(c2cccc(-n3ccnc3)c2)=NN1 | – | > 1000 µM | –
4 | O=C1CC2Cc3cc(-n4cnc5c4CCCC5)ccc3C2=NN1 (stereo unspecified) | 0.05 mg/kg | – | IC50 (Phosphodiesterase 3): 1.2 µM
5 | CC1=C(c2ccc(-n3ccnc3)cc2)CC(C#N)C(=O)N1 (stereo unspecified) | 0.01 mg/kg | 130 µM | IC50 [2]: 43 µM; IC50 (Phosphodiesterase 1 [3]): 39 µM; IC50 [4]: 120 µM
6 | CSc1ccc(C(=O)c2[nH]c(=O)[nH]c2C)cc1 [ENOXIMONE] | 0.28 mg/kg | – | –
7 | Nc1cc(-c2ccncc2)c[nH]c1=O [INAMRINONE] | 0.39 mg/kg | > 1000 µM | IC50 (Phosphodiesterase 1 [3]): > 1000 µM
8 | Cc1[nH]c(=O)c(C#N)cc1-c1ccncc1 [MILRINONE] | 0.04 mg/kg | – | –
9 | CCc1[nH]c(=O)[nH]c1C(=O)c1ccncc1 [PIROXIMONE] | 0.1 mg/kg | – | –
